Measurements from patent US10259810B2, “N-sulfonylated pyrazolo[3,4-b]pyridin-6-carboxamides and method of use” (AbbVie S.à.r.l., priority 2015, dated 2019).

How the values were obtained:
[1] = biological target: T1, ΔF508-CFTR (Homo sapiens, UniProt P13569, DEL508-508); assay: CFTR cell surface levels using HRP-tagged ΔF508-CFTR expressing CFBE cells, intrinsic corrector capacity; format: cell-based; set-up: % Activation: concentration or dose not given beside the values; conditions: HRP-tagged ΔF508-CFTR expressing CFBE41o- cells, compound alone (intrinsic corrector capacity), 20 hours at 33° C.; for EC50: read-out: EC50
T1 construct: host or cells: CFBE41o-, doxycycline-inducible
How it was run: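 Read-out: chemiluminescent HRP activity of ECL4-HRP-tagged ΔF508-CFTR at the cell surface, 15 min substrate in dark. Normalized as 100×(sample−DMSO)/(positive control−DMSO).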

[2] = biological target: T2, CFTR ΔF508 (Homo sapiens, UniProt P13569, DEL508-508); assay: Chronic TECC assay, primary bronchial epithelial cells of CF patients homozygous for CFTR ΔF508 (corrector, co-corrector and potentiator); format: cell-based; conditions: chronic TECC, Ieq = calculations based on the maximum current
T2 construct: bronchial epithelial cells isolated from CF patients homozygous for the CFTR ΔF508 mutation; McGill University; Asterand; University of North Carolina hAEC-CF; host or cells: primary human bronchial epithelial cells from CF patients homozygous for ΔF508, differentiated at air-liquid interface
How it was run: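 Primary bronchial epithelial cells from ΔF508-homozygous CF patients on collagen IV-coated Transwells were chronically treated with test compound plus corrector and potentiator, which were re-added before recording. Ieq was derived from PD and Rt in NaCl-Ringer, pH 7.4, at 37° C, with apical amiloride and bilateral forskolin, recorded every 2 min over 20 min. Ieq increase was normalized to controls, and EC50 was taken from per-well concentrations.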

T1 sequence (P13569 with tags, fused parts or gaps DEL508-508): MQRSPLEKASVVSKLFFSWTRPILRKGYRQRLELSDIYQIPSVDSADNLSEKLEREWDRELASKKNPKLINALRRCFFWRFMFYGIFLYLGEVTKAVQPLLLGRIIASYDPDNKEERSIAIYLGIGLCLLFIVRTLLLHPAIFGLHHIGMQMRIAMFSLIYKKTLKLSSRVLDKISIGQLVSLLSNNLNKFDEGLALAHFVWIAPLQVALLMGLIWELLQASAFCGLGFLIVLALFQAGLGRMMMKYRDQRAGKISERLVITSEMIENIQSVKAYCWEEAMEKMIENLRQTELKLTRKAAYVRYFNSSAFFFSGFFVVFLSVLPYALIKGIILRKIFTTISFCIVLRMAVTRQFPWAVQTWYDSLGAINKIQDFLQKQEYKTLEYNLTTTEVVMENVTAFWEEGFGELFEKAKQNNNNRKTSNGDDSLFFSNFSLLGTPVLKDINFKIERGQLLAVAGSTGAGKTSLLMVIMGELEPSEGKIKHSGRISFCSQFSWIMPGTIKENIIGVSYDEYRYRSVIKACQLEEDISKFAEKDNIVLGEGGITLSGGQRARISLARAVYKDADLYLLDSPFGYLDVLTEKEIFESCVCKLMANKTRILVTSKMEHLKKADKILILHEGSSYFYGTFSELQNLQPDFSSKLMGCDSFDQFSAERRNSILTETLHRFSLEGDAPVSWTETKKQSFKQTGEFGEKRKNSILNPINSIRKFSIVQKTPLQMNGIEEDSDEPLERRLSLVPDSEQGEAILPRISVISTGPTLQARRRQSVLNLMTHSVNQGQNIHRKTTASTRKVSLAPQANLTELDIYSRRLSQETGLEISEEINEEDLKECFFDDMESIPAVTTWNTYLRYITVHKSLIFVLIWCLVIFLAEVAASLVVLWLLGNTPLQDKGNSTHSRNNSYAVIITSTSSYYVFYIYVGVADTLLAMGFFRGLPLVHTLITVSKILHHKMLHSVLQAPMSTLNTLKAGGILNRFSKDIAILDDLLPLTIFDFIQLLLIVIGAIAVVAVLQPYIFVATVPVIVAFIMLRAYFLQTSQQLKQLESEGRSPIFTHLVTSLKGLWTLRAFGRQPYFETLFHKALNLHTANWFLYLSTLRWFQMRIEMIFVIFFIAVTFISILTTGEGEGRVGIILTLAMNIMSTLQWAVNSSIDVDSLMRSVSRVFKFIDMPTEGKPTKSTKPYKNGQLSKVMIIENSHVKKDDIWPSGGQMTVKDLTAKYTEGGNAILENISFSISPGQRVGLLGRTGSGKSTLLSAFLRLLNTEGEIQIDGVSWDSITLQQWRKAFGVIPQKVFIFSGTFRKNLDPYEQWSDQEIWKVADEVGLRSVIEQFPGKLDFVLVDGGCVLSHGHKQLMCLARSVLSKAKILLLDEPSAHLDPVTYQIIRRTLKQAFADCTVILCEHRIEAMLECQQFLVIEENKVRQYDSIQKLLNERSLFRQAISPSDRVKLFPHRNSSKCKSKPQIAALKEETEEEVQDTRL
T2 sequence (P13569 with tags, fused parts or gaps DEL508-508): as above

Row | Compound | % Activation [1] [%] | EC50 [1] [nM] | EC50 ([2]; read-out: EC50 (nM) (Ieq*)) | % Activity at 1 μM (Ieq*) ([2]; test compound at 1 μM) [%]
1 | CC(C)c1nn(-c2cccc(N3CCC3)c2)c2nc(C(=O)NS(C)(=O)=O)cc(-c3ccc(N4CCOCC4)cc3)c12 [Compound 10, 1-[3-(azetidin-1-yl)phenyl]-N-(methanesulfonyl)-4-[4-(morpholin-4-yl)phenyl]-3-(propan-2-yl)-1H-pyrazolo[3,4-b]pyridine-6-carboxamide] | 418.25 | 572 |  | 
2 | CC(C)c1nn(C2CCCCC2)c2nc(C(=O)NS(C)(=O)=O)cc(-c3cnc(N4CCOCC4)nc3)c12 [Compound 11, 1-cyclohexyl-N-(methanesulfonyl)-4-[2-(morpholin-4-yl)pyrimidin-5-yl]-3-(propan-2-yl)-1H-pyrazolo[3,4-b]pyridine-6-carboxamide] | 164.7 | 557 |  | 
3 | Cc1nn(-c2ccccc2)c2nc(C(=O)NS(C)(=O)=O)cc(N3CCCCC3)c12 [Compound 13, N-(methanesulfonyl)-3-methyl-1-phenyl-4-(piperidin-1-yl)-1H-pyrazolo[3,4-b]pyridine-6-carboxamide] | 153.85 | 2360 |  | 
4 | CS(=O)(=O)NC(=O)c1cc(-c2ccc(N3CCC(C#N)CC3)nc2)c2c(C3CCC3)nn(C3CCCCC3)c2n1 [Compound 104, 4-[6-(4-cyanopiperidin-1-yl)pyridin-3-yl]-3-cyclobutyl-1-cyclohexyl-N-(methanesulfonyl)-1H-pyrazolo[3,4-b]pyridine-6-carboxamide] | 239.6 | 497 | < 30 | 720
